These results are taken from patent publication US10364256B2 (GlaxoSmithKline Intellectual Property Development Limited, priority 2015, dated 2019).

Experiment [1] deals with NQO1 specific enzyme activity in BEAS-2B cells (marker for NRF2 activation). In words: BEAS-2B NQO1 MTT Assay. The conditions noted are these: Homo sapiens, compound incubated 48 hours, read-out: EC50 (NQO1 specific enzyme activity induction). It is filed as cell-based. In short, it runs like this:
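BEAS-2B cells treated with compound for 48 h at 37 °C, then lysed; NQO1 activity in lysates measured kinetically by MTT reduction at A570 over 30 min. pEC50 from 3-parameter fit of ΔOD/min versus log concentration; lysate also taken for Cell Titer Glo.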

The target in experiment [2] is T1, full length Keap1 protein / full length NRF2 protein (Homo sapiens, UniProt Q14145).
T1 construct: full length NRF2 protein and full length Keap1 protein (Keap1 exists a dimer) are used; His
T1 sequence (Q14145 whole entry): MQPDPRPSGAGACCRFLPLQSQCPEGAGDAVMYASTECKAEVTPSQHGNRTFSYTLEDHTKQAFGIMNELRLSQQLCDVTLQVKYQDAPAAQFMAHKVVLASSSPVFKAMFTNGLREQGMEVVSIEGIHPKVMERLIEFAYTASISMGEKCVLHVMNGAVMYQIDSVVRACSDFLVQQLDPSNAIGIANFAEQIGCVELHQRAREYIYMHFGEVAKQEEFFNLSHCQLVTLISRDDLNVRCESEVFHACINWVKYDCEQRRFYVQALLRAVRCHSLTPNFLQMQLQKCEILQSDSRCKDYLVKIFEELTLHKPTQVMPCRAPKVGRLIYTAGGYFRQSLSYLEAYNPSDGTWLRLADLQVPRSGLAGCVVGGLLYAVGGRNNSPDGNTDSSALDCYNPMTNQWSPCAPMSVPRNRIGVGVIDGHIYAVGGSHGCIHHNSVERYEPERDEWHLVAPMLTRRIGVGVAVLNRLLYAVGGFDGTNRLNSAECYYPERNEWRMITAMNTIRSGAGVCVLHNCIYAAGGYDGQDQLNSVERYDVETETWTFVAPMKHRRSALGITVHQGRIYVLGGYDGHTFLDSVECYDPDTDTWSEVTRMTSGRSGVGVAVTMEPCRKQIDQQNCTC
In words: NRF2-Keap1 TR-FRET Low Protein Assay. The format is binding. As to conditions: 1.25 nM Keap1 FlagHis and 2.5 nM biotin-NRF2 added. In short, it runs like this:
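Flag-tagged full-length Keap1 was preincubated with compound (3-fold series) for 2.25 h at 37 °C in Tris pH 8.0/MgCl2/NaCl/BSA/DTT/CHAPS. Biotin-Avi-NRF2 (added at 2.5 nM) was then bound for 1.25 h at 4 °C. Eu-streptavidin/anti-Flag-APC TR-FRET (665/615 nm) was read after 1 h at RT, and pIC50 came from a four-parameter fit.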
(In general: Time-resolved FRET reads energy transfer from a long-lived donor to a nearby acceptor.)

On to `Cn1cc(C2CC2c2c(C(=O)O)cnn2-c2cccc(-c3cccc(OCc4ccccc4F)c3)c2)nn1` (stereo not shown) [Example 222, 1-(3′-((2-Fluorobenzyl)oxy)-[1,1′-biphenyl]-3-yl)-5-(2-(1-methyl-1H-1,2,3-triazol-4-yl)cyclopropyl)-1H-pyrazole-4-carboxylic acid], for which, in experiment [1], the EC50 (as a rule, the concentration that produces a half-maximal response) fell in the range of 100 to 1000 nM. The IC50 (commonly the concentration that gives 50% inhibition) in experiment [2] was 10 to 100 nM.

As for `Cn1cc(C2CC2c2c(C(=O)O)cnn2-c2cccc(-c3cccc(OCc4ccc(F)cc4)c3)c2)nn1` (stereo not shown) [Example 223, 1-(3′-((4-Fluorobenzyl)oxy)-[1,1′-biphenyl]-3-yl)-5-(2-(1-methyl-1H-1,2,3-triazol-4-yl)cyclopropyl)-1H-pyrazole-4-carboxylic acid], the EC50 in experiment [1] lay within 100 to 1000 nM. The compound further displayed an IC50 in experiment [2] of 100 to 1000 nM.

Regarding `Cn1cc(C2CC2c2c(C(=O)O)cnn2-c2cccc(-c3cccc(OCc4cccc(F)c4)c3)c2)nn1` (stereo not shown) [Example 224, 1-(3′-((3-Fluorobenzyl)oxy)-[1,1′-biphenyl]-3-yl)-5-(2-(1-methyl-1H-1,2,3-triazol-4-yl)cyclopropyl)-1H-pyrazole-4-carboxylic acid], in experiment [1], the EC50 fell in the range of 100 to 1000 nM. Besides, the IC50 in experiment [2] lay within 100 to 1000 nM.

`Cn1cc(C2CC2c2c(C(=O)O)cnn2-c2cccc(-c3cccc(OCCC(C)(C)C)c3)c2)nn1` (stereo not shown) [Example 225, 1-(3′-(3,3-Dimethylbutoxy)-[1,1′-biphenyl]-3-yl)-5-(2-(1-methyl-1H-1,2,3-triazol-4-yl)cyclopropyl)-1H-pyrazole-4-carboxylic acid]: the EC50 in experiment [1] was 10 to 100 nM. The compound also yielded an IC50 in experiment [2] of 10 to 100 nM.

As for `CC(Oc1cccc(-c2cccc(-n3ncc(C(=O)O)c3C3CC3c3cn(C)nn3)c2)c1)C1CCOCC1` (stereo not shown) [Example 227, 5-(2-(1-Methyl-1H-1,2,3-triazol-4-yl)cyclopropyl)-1-(3′-(1-(tetrahydro-2H-pyran-4-yl)ethoxy)-[1,1′-biphenyl]-3-yl)-1H-pyrazole-4-carboxylic Acid], the EC50 in experiment [1] fell in the range of 100 to 1000 nM. In experiment [2], this compound displayed an IC50 of 10 to 100 nM.

As to `CC(Oc1cccc(-c2cccc(-n3ncc(C(=O)O)c3C3CC3c3cn(C)nn3)c2)c1)C1CCCC1` (stereo not shown) [Example 228, 1-(3′-(1-Cyclopentylethoxy)-[1,1′-biphenyl]-3-yl)-5-(2-(1-methyl-1H-1,2,3-triazol-4-yl)cyclopropyl)-1H-pyrazole-4-carboxylic acid], in experiment [1], the EC50 was in the range of 1 to 10 nM. The IC50 in experiment [2] was in the range of 10 to 100 nM.

`Cn1cc(C2CC2c2c(C(=O)O)cnn2-c2cccc(-c3cccc(OC4CCCCC4)c3)c2)nn1` (stereo not shown) [Example 229]: in experiment [1], the EC50 was 10 to 100 nM. The same compound had a 50% inhibitory concentration (IC50) in experiment [2] of 10 to 100 nM.

Turning to `CC(Oc1cccc(-c2cccc(-n3ncc(C(=O)O)c3C3CC3c3cn(C)nn3)c2)c1)C1CC1` (stereo not shown) [Example 231, 1-(3′-(1-Cyclopropylethoxy)-[1,1′-biphenyl]-3-yl)-5-(2-(1-methyl-1H-1,2,3-triazol-4-yl)cyclopropyl)-1H-pyrazole-4-carboxylic acid], in experiment [1], the EC50 lay within 100 to 1000 nM. The compound further displayed a concentration for half-maximal inhibition (IC50) in experiment [2] of 10 to 100 nM.

For the compound `Cn1cc(C2CC2c2c(C(=O)O)cnn2-c2cccc(-c3cccc(OC4CCCN(C(=O)OC(C)(C)C)C4)c3)c2)nn1` (stereo not shown) [Example 232, 1-(3′-((1-(tert-Butoxycarbonyl)piperidin-3-yl)oxy)-[1,1′-biphenyl]-3-yl)-5-(2-(1-methyl-1H-1,2,3-triazol-4-yl)cyclopropyl)-1H-pyrazole-4-carboxylic acid], in experiment [1], the EC50 lay within 100 to 1000 nM. For the same compound, in experiment [2], the IC50 was in the range of 10 to 100 nM.

With `Cn1cc(C2CC2c2c(C(=O)O)cnn2-c2cccc(-c3cccc(CCC4CCCCC4)c3)c2)nn1` (stereo not shown) [Example 233, 1-(3′-(2-Cyclohexylethyl)-[1,1′-biphenyl]-3-yl)-5-(2-(1-methyl-1H-1,2,3-triazol-4-yl)cyclopropyl)-1H-pyrazole-4-carboxylic Acid], the EC50 in experiment [1] fell in the range of 1 to 10 nM. Further, in experiment [2], the IC50 was in the range of 10 to 100 nM.

As for `Cn1cc(C2CC2c2c(C(=O)O)cnn2-c2cccc(-c3cccc(OC4CCOCC4)c3F)c2)nn1` (stereo not shown) [Example 234, 1-(2′-Fluoro-3′-((tetrahydro-2H-pyran-4-yl)oxy)-[1,1′-biphenyl]-3-yl)-5-(2-(1-methyl-1H-1,2,3-triazol-4-yl)cyclopropyl)-1H-pyrazole-4-carboxylic Acid], the EC50 in experiment [1] was 1000 to 10000 nM. This compound gave an IC50 in experiment [2] of 10 to 100 nM.

In the case of `CC(Oc1cccc(-c2cccc(-n3ncc(C(=O)O)c3C3CC3c3cn(C)nn3)c2)c1)c1ccccc1` (stereo not shown) [Example 235, 5-(2-(1-Methyl-1H-1,2,3-triazol-4-yl)cyclopropyl)-1-(3′-(1-phenylethoxy)-[1,1′-biphenyl]-3-yl)-1H-pyrazole-4-carboxylic Acid], the half-maximal effective concentration (EC50) in experiment [1] lay in the range of 100 to 1000 nM. The IC50 in experiment [2] was in the range of 10 to 100 nM.

In the case of `Cn1cc(C2CC2c2c(C(=O)O)cnn2-c2cccc(-c3cccc(C(=O)C4CCCCC4)c3)c2)nn1` (stereo not shown) [Example 243, 1-(3′-(Cyclohexanecarbonyl)-[1,1′-biphenyl]-3-yl)-5-(2-(1-methyl-1H-1,2,3-triazol-4-yl)cyclopropyl)-1H-pyrazole-4-carboxylic Acid], the EC50 in experiment [1] was in the range of 100 to 1000 nM. The compound further gave an IC50 in experiment [2] of 10 to 100 nM.

Regarding `COC(c1cccc(-c2cccc(-n3ncc(C(=O)O)c3C3CC3c3cn(C)nn3)c2)c1)C1CCCCC1` (stereo not shown) [Example 244, 1-(3′-(Cyclohexyl(methoxy)methyl)-[1,1′-biphenyl]-3-yl)-5-(2-(1-methyl-1H-1,2,3-triazol-4-yl)cyclopropyl)-1H-pyrazole-4-carboxylic acid], the EC50 in experiment [1] lay within 100 to 1000 nM. The compound also had an IC50 in experiment [2] of 10 to 100 nM.
